Experimental data from ChEMBL document CHEMBL1144340, “QSAR for phospholipase A2 inhibitions by 1-acyloxy-3-N-n-octylcarbamyl-benzenes” (Bioorg Med Chem Lett, 2005).

Target: T1, Acidic phospholipase A2 CM-I (Naja mossambica, UniProt P00602)
T1 sequence (P00602 whole entry): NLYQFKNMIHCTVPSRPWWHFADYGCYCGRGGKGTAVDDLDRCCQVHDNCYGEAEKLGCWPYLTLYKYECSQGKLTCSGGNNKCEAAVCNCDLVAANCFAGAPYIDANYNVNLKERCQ
Test: Inhibitory activity against phospholipase A2

Row | SMILES | Ki [µM]
1 | CCCCCCCCNC(=O)Oc1cccc(OC(=O)CCCCCCC)c1 | 27
2 | CCCCCCCCNC(=O)Oc1cccc(OC(=O)C(Cl)(Cl)Cl)c1 | 120
3 | CCCCCCCCNC(=O)Oc1cccc(OC(=O)Cc2ccccc2)c1 | 73
4 | CCCCCCCCNC(=O)Oc1cccc(OC(=O)c2ccccc2)c1 | 95
5 | CCCCCCCCNC(=O)Oc1cccc(OC(=O)C(C)(C)C)c1 | 55
6 | CCCCCCCCNC(=O)Oc1cccc(OC(C)=O)c1 | 98
7 | CCCCCCCCNC(=O)Oc1cccc(OC(=O)CCCC)c1 | 75
8 | CCCCCCCCCCCCCCCC(=O)Oc1cccc(OC(=O)NCCCCCCCC)c1 | 9.6
9 | CCCCCCCCNC(=O)Oc1cccc(OC(=O)C(c2ccccc2)(c2ccccc2)c2ccccc2)c1 | 38
